Values after ≈ are worked out from the molar mass of the structure shown.
Experiments:
[1] = tested on: K. rhizophila; assay: Minimum inhibitory concentration determination (EUCAST method); type: cell-based, Kocuria rhizophila; conditions: K. rhizophila in LB medium, concentration range 25-1600 nM tested, 24 h at 37° C.
Protocol: Minimum inhibitory concentrations were determined using the previously published method (European Committee for Antimicrobial Susceptibility Testing (EUCAST), Clin Microbiol Infect (2003), 9 (8), ix-xv). 5 μL suspension (McFarland scale 0.5) of K. rhizophila bacterial culture was inoculated into 1 mL of LB medium containing test substances of the desired concentration (a concentration range of 25-1600 nM was tested). The cultures were incubated for 24 h at 37° C.

[2] = tested on: Kocuria rhizophila; assay: Disc diffusion test (antibacterial activity); type: cell-based; conditions: paper discs (diameter 5 mm) saturated with 5 nmol compound; LB agar covered with lincomycin sensitive test strain Kocuria rhizophila; 37° C., 20 h
Protocol: Filtration paper discs (geometric diameter 5 mm) saturated with 5 nmol of tested novel lincosamide compounds were placed on LB agar plates (tryptone 10 g, yeast extract 5 g, NaCl 10 g, supplemented with distilled water to 1000 mL, pH 7.5; agar 15 g) continuously covered with culture of the lincomycin sensitive test strain Kocuria rhizophila. The plates were incubated at 37° C. for 20 h.

CO[C@H](C)[C@@H](NC(=O)[C@@H]1CCCN1C)[C@H]1O[C@H](SCCOC(=O)c2ccccc2O)[C@H](O)[C@@H](O)[C@H]1O [Celesticetin]
MIC [1]: 1.6 µM (≈ 0.846 µg/mL)
Disc diffusion test: size of inhibition zones [2]: 19 mm

CCC[C@@H]1C[C@@H](C(=O)N[C@@H]([C@H]2O[C@H](SCCOC(=O)c3ccccc3O)[C@H](O)[C@@H](O)[C@H]2O)[C@@H](C)O)N(C)C1
MIC ([1]; Kocuria rhizophila): 0.1 µM (≈ 0.0557 µg/mL)
Disc diffusion test: size of inhibition zones [2]: 29 mm

CCC[C@@H]1C[C@@H](C(=O)N[C@@H]([C@H]2O[C@H](SCCOC(=O)c3ccccc3O)[C@H](O)[C@@H](O)[C@H]2O)[C@@H](C)OC)N(C)C1
MIC ([1]; Kocuria rhizophila): 0.1 µM (≈ 0.0571 µg/mL)
Disc diffusion test: size of inhibition zones [2]: 28 mm

CCC[C@@H]1C[C@@H](C(=O)N[C@@H]([C@H]2O[C@H](SC)[C@H](O)[C@@H](O)[C@H]2O)[C@@H](C)O)N(C)C1 [Lincomycin]
MIC [1]: 0.4 µM (≈ 0.163 µg/mL)
Disc diffusion test: size of inhibition zones [2]: 24 mm

— patent US10822366B2, “Lincosamide derivatives, preparation and use thereof as antimicrobial agent” (MIKROBIOLOGICKY USTAV AV CR, V. V. I., priority 2017, dated 2020)
